Reference: ChEMBL document CHEMBL6078682, “Circumventing Imatinib resistance in CML: Novel Telmisartan-based cell death modulators with improved activity and stability” (Eur J Med Chem, 2025)
Values after ≈ are worked out from the molar mass of the structure shown. Active and inactive are the calls of the source. The calls are words filed in the database; no cut-off is given here.

Assays:
[1] = Retention time of compound by HPLC analysis; format: physicochemical
[2] = tested on: K562; assay: Re-sensitization of human K562 cells to imatinib assessed as reduction in metabolic activity at 10 uM in presence of imatinib by EZ4U assay; format: functional, cell-based
[3] = Stability of compound in PBS buffer incubated for 8 to 24 hrs by HPLC analysis; format: physicochemical; settings: time 8-24 hrs
[4] = target: T1, Liver carboxylesterase (Sus scrofa, UniProt Q29550); assay: Stability of the compound assessed as porcine liver esterase-mediated hydrolysis by measuring half life at 800 uM measured after 180 mins by HPLC analysis; format: ADME; settings: pig
T1 sequence (Q29550 whole entry): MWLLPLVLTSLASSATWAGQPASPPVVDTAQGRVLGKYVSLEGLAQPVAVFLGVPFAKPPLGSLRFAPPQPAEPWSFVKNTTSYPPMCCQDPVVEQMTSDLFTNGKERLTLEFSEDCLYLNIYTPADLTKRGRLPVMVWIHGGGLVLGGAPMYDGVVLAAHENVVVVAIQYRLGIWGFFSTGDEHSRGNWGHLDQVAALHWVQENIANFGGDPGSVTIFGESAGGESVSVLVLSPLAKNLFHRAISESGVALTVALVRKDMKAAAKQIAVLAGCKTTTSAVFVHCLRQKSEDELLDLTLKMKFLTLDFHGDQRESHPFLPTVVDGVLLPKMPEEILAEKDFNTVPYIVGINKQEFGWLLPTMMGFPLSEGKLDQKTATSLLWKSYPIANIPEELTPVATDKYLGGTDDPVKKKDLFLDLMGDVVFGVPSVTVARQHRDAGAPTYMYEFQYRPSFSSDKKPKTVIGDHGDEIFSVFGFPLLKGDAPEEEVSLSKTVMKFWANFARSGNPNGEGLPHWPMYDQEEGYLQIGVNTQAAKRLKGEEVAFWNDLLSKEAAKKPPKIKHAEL

[5] = Stability in cell culture medium containing fetal bovine serum assessed as compound remaining at 200 uM at 37 degreeC measured after 72 hrs by RP-HPLC analysis; format: ADME, cell-free; settings: cattle, read-out: Stability
[6] = tested on: K562-IMA[r]; assay: Cytotoxicity against human Imatinib-resistant K562 cells assessed as effect on metabolic activity at 10 uM incubated for 72 hrs by MTT assay; format: functional, cell-based
[7] = Cytotoxicity against human HS5 cells assessed as effect on metabolic activity at 10 uM incubated for 72 hrs by MTT assay; format: toxicity, cell-based; settings: hs5, 72 h
[8] = tested on: COS-7; assay: Cytotoxicity against african green monkey COS-7 cells assessed as effect on metabolic activity at 10 uM incubated for 72 hrs by MTT assay; format: toxicity, cell-based; settings: chlorocebus aethiops, cos-7, 72 h
[9] = tested on: K562; assay: Re-sensitization of human K562 cells to imatinib assessed as reduction in metabolic activity at 5 uM in presence of 1 uM imatinib by EZ4U assay; format: functional, cell-based
[10] = tested on: K562; assay: Re-sensitization of human K562 cells to imatinib assessed as reduction in metabolic activity by measuring maximal sensitizing concentration in presence of imatinib by EZ4U assay; format: functional, cell-based; settings: read-out: EC50
[11] = target: T1, Liver carboxylesterase; assay: Stability of the compound assessed as porcine liver esterase-mediated hydrolysis at 800 uM measured after 180 mins by HPLC analysis; format: ADME; settings: pig, isolated protein, 3 h
[12] = Stability of the compound assessed as Pseudomonas aeruginosa Amidase-mediated hydrolysis at 800 uM measured after 6 hrs by HPLC analysis; format: ADME; settings: isolated protein
[13] = tested on: K562; assay: Re-sensitization of human K562 cells to imatinib assessed as reduction in metabolic activity at 5 uM in presence of imatinib by EZ4U assay; format: functional, cell-based
[14] = Drug uptake in human Imatinib-resistant K562 cells assessed as increase in fluorescent intensity measured after 24 hrs by coomassie brilliant blue staining based analysis; format: ADME, cell-based; settings: k562-ima[r]
[15] = Drug uptake in human Imatinib-resistant K562 cells assessed as increase in fluorescent intensity measured after 3 hrs by coomassie brilliant blue staining based analysis; format: ADME, cell-based; settings: k562-ima[r]
[16] = Drug uptake in human Imatinib-resistant K562 cells assessed as increase in fluorescent intensity measured after 1 hr by coomassie brilliant blue staining based analysis; format: ADME, cell-based; settings: k562-ima[r]
[17] = Solubility of compound in DMSO measured for 30 mins by UV-spectroscopy analysis; format: physicochemical
[18] = Stability of the compound assessed as Pseudomonas aeruginosa Amidase-mediated hydrolysis at 800 uM measured after 24 hrs by HPLC analysis; format: ADME; settings: isolated protein
[19] = tested on: amidase; assay: Stability of the compound assessed as Pseudomonas aeruginosa Amidase-mediated hydrolysis by measuring half life at 800 uM measured after 24 hrs by HPLC analysis; format: ADME

Row | Structure (SMILES) | Retention_time [1] | Activity [2] | Stability [3] | half-life at 800 µM [4] | remaining at 72 h, 200 µM [5] | Activity [6] | Activity [7] | Activity [8] | Activity [9] | maximal sensitizing concentration [10] | Stability [11] | Stability [12] | Activity [13] | Drug uptake [14] | Drug uptake [15] | Drug uptake [16] | solubility at 0.5 h [17] | Stability [18] | half-life at 800 µM [19]
1 | CCCc1nc2ccccc2n1Cc1ccc(-c2ccccc2C(=O)O)cc1 | 10.8 min | Active |  |  |  |  |  |  |  |  |  |  |  |  |  |  |  |  | 
2 | CCCOC(=O)c1ccccc1-c1ccc(Cn2c(CCC)nc3ccccc32)cc1 | < 13.6 min |  | Stable | 1.16 h | 75.9% | inactive | Non-toxic | Non-toxic | Active | 1800 nM |  |  |  |  |  |  |  |  | 
3 | CCCc1nc2ccccc2n1Cc1ccc(-c2ccccc2C(=O)Nc2ccc(Oc3ccccc3)cc2)cc1 | 13.6 min |  | Stable |  | 102% | inactive | Non-toxic | Non-toxic | Active | 1300 nM | Stable | Stable |  |  |  |  |  |  | 
4 | CCCCOC(=O)c1ccccc1-c1ccc(Cn2c(CCC)nc3ccccc32)cc1 | < 13.8 min |  | Stable | 1.37 h | 78% | inactive | Non-toxic | Non-toxic | Active | 1600 nM |  |  |  |  |  |  |  |  | 
5 | CCCc1nc2ccccc2n1Cc1ccc(-c2ccccc2C(=O)OC(C)(C)C)cc1 | 13.4 min |  | Stable |  | 97.2% | inactive | Non-toxic | Non-toxic | Active | 2900 nM |  |  |  |  |  |  |  |  | 
6 | CCCc1nc2ccccc2n1Cc1ccc(-c2ccccc2C(=O)OC)cc1 | 12.4 min |  | Stable | 0.917 h | 67.8% | inactive | Non-toxic | Non-toxic |  | 2400 nM |  |  | Active | 4.7 nmol/mg | 3.5 nmol/mg | 3 nmol/mg |  |  | 
7 | CCCNC(=O)c1ccccc1-c1ccc(Cn2c(CCC)nc3ccccc32)cc1 | < 11.1 min |  | Stable |  | 95.1% | inactive | Non-toxic | Non-toxic | Active | 4500 nM |  |  |  |  |  |  |  |  | 
8 | CCCc1nc2ccccc2n1Cc1ccc(-c2ccccc2C(=O)OCC)cc1 | < 12.8 min |  | Stable | 1.05 h | 71.9% | inactive | Non-toxic | Non-toxic | Active | 2100 nM |  |  |  |  |  |  |  |  | 
9 | CCCc1nc2ccccc2n1Cc1ccc(-c2ccccc2C(=O)NC(C)(C)C)cc1 | 11.5 min |  | Stable |  | 100% | inactive | Non-toxic | Non-toxic | Active | 5200 nM | Stable | Stable |  |  |  |  |  |  | 
10 | CCCc1nc2ccccc2n1Cc1ccc(-c2ccccc2C(=O)OC(C)C)cc1 | 13.1 min |  | Stable |  | 91.9% | inactive | Non-toxic | Non-toxic | Active | 2200 nM |  |  |  |  |  |  |  |  | 
11 | CCCc1nc2ccccc2n1Cc1ccc(-c2ccccc2C(=O)NC(C)C)cc1 | 10.8 min |  | Stable |  | 99.1% | inactive | Non-toxic | Non-toxic | Active | 4800 nM |  |  |  |  |  |  |  |  | 
12 | CCCc1nc2ccccc2n1Cc1ccc(-c2ccccc2C(=O)Oc2ccc(-c3ccccc3)cc2)cc1 | 15.3 min |  | Stable |  |  |  |  |  |  |  |  |  |  |  |  |  | 16 mM (≈ 8.36 mg/mL) |  | 
13 | CCCc1nc2ccccc2n1Cc1ccc(-c2ccccc2C(=O)Oc2ccccc2)cc1 | 13.7 min |  | Stable | 4.67 h | 94.8% | inactive | Non-toxic | Non-toxic | Active | 1500 nM |  |  |  | 15.7 nmol/mg | 13.1 nmol/mg |  |  |  | 
14 | CCCc1nc2ccccc2n1Cc1ccc(-c2ccccc2C(=O)NCC)cc1 | < 10.3 min |  | Stable |  | 95.1% | inactive | Non-toxic | Non-toxic | Active | 6200 nM | Stable |  |  |  |  |  |  | Stable | 65 h
15 | CCCCNC(=O)c1ccccc1-c1ccc(Cn2c(CCC)nc3ccccc32)cc1 | < 11.6 min |  | Stable |  | 97.1% | inactive | Non-toxic | Non-toxic | Active | 1300 nM | Stable | Stable |  |  |  |  |  |  | 
16 | CCCc1nc2ccccc2n1Cc1ccc(-c2ccccc2C(=O)Oc2ccc(Oc3ccccc3)cc2)cc1 | 15.2 min |  | Stable | 6.17 h | 99.8% | inactive | Non-toxic | Non-toxic | Active | 2500 nM |  |  |  |  |  |  | 22 mM (≈ 11.9 mg/mL) |  | 
